# Measured values taken from ChEMBL document CHEMBL1201862, “PubChem BioAssay data set” (2004).
#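 Briefly, cells in 96-well plates were exposed to five compound concentrations for 48 h, and endpoints were estimated by linear interpolation. GI50 is the concentration that inhibits growth by half.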 Active and inactive are the calls of the source. Cut-off read from the data, not from the text of the source: active = GI50 up to about 1.1 µM and inactive = higher.
# Legend:
# Experiment in all cases: DTP human tumour cell line panel, 48 h
# [1] = test system: 786-0
# [2] = test system: ACHN
# [3] = test system: CCRF-CEM
# [4] = test system: COLO 205
# [5] = test system: DLD-1
# [6] = test system: DMS-114
# [7] = test system: EKVX
# [8] = test system: HCC 2998
# [9] = test system: HCT-116
# [10] = test system: HL-60
# [11] = test system: HOP-18
# [12] = test system: HOP-62
# [13] = test system: HOP-92
# [14] = test system: HT-29
# [15] = test system: IGROV-1
# [16] = test system: K562
# [17] = test system: KM-20L2
# [18] = test system: KM12
# [19] = test system: LOX IMVI
# [20] = test system: LXFL 529
# [21] = test system: M14
# [22] = test system: M19-MEL
# [23] = test system: MOLT-4
# [24] = test system: Malme-3M
# [25] = test system: NCI-H226
# [26] = test system: NCI-H23
# [27] = test system: NCI-H460
# [28] = test system: NCI-H522
# [29] = test system: OVCAR-3
# [30] = test system: OVCAR-4
# [31] = test system: OVCAR-5
# [32] = test system: OVCAR-8
# [33] = test system: RPMI-8226
# [34] = test system: RXF 393
# [35] = test system: RXF 631
# [36] = test system: SF-268
# [37] = test system: SF-295
# [38] = test system: SF-539
# [39] = test system: SK-MEL-28
# [40] = test system: SK-MEL-5
# [41] = test system: SK-OV-3
# [42] = test system: SN12C
# [43] = test system: SNB-19
# [44] = test system: SNB-75
# [45] = test system: SNB-78
# [46] = test system: SR
# [47] = test system: SW-620
# [48] = test system: TK-10
# [49] = test system: UACC-257
# [50] = test system: UACC-62
# [51] = test system: UO-31
# [52] = test system: XF498
# [53] = test system: A498
# [54] = test system: A549
# [55] = test system: BT-549
# [56] = test system: CAKI-1
# [57] = test system: DMS-273
# [58] = test system: DU-145
# [59] = test system: HCT-15
# [60] = test system: MDA-MB-231
# [61] = test system: MDA-MB-435
# [62] = test system: MDA-N
# [63] = test system: NCI/ADR-RES
# [64] = test system: PC-3
# [65] = test system: SK-MEL-2
# [66] = test system: U-251
smiles,measurement,setting,value
COc1ccc(-c2cc(O)c3cc(Cl)ccc3n2)cc1,GI50,[1],> 100 µM (inactive)
same,GI50,[2],> 100 µM (inactive)
same,GI50,[3],> 100 µM (inactive)
same,GI50,[4],> 100 µM (inactive)
same,GI50,[5],> 100 µM (inactive)
same,GI50,[6],> 100 µM (inactive)
same,GI50,[7],> 100 µM (inactive)
same,GI50,[8],> 100 µM (inactive)
same,GI50,[9],> 100 µM (inactive)
same,GI50,[10],> 100 µM (inactive)
same,GI50,[11],54.5 µM (inactive)
same,GI50,[12],> 100 µM (inactive)
same,GI50,[13],> 100 µM (inactive)
same,GI50,[14],> 100 µM (inactive)
same,GI50,[15],> 100 µM (inactive)
same,GI50,[16],> 100 µM (inactive)
same,GI50,[17],> 100 µM (inactive)
same,GI50,[18],91.8 µM (inactive)
same,GI50,[19],> 100 µM (inactive)
same,GI50,[20],> 100 µM (inactive)
same,GI50,[21],> 100 µM (inactive)
same,GI50,[22],> 100 µM (inactive)
same,GI50,[23],> 100 µM (inactive)
same,GI50,[24],> 100 µM (inactive)
same,GI50,[25],> 100 µM (inactive)
same,GI50,[26],> 100 µM (inactive)
same,GI50,[27],> 100 µM (inactive)
same,GI50,[28],> 100 µM (inactive)
same,GI50,[29],> 100 µM (inactive)
same,GI50,[30],> 100 µM (inactive)
same,GI50,[31],> 100 µM (inactive)
same,GI50,[32],> 100 µM (inactive)
same,GI50,[33],> 100 µM (inactive)
same,GI50,[34],> 100 µM (inactive)
same,GI50,[35],> 100 µM (inactive)
same,GI50,[36],> 100 µM (inactive)
same,GI50,[37],> 100 µM (inactive)
same,GI50,[38],> 100 µM (inactive)
same,GI50,[39],> 100 µM (inactive)
same,GI50,[40],> 100 µM (inactive)
same,GI50,[41],> 100 µM (inactive)
same,GI50,[42],> 100 µM (inactive)
same,GI50,[43],> 100 µM (inactive)
same,GI50,[44],> 100 µM (inactive)
same,GI50,[45],> 100 µM (inactive)
same,GI50,[46],> 100 µM (inactive)
same,GI50,[47],> 100 µM (inactive)
same,GI50,[48],> 100 µM (inactive)
same,GI50,[49],> 100 µM (inactive)
same,GI50,[50],> 100 µM (inactive)
same,GI50,[51],> 100 µM (inactive)
same,GI50,[52],> 100 µM (inactive)
O=Cc1ccc(-c2ccc(-c3ccc(C=O)s3)o2)s1,GI50,[1],23.8 µM (inactive)
same,GI50,[53],0.284 µM (active)
same,GI50,[54],> 81.7 µM (inactive)
same,GI50,[2],> 100 µM (inactive)
same,GI50,[55],77.3 µM (inactive)
same,GI50,[56],0.418 µM (active)
same,GI50,[3],> 43.6 µM (inactive)
same,GI50,[4],18.7 µM (inactive)
same,GI50,[5],74.5 µM (inactive)
same,GI50,[6],> 84.1 µM (inactive)
same,GI50,[57],26.2 µM (inactive)
same,GI50,[58],> 100 µM (inactive)
same,GI50,[7],> 53.3 µM (inactive)
same,GI50,[8],18 µM (inactive)
same,GI50,[9],8.53 µM (inactive)
same,GI50,[59],61.5 µM
same,GI50,[10],> 100 µM (inactive)
same,GI50,[11],> 100 µM (inactive)
same,GI50,[12],8.63 µM (inactive)
same,GI50,[13],> 89.3 µM (inactive)
same,GI50,[14],> 96.2 µM (inactive)
same,GI50,[15],3.27 µM (inactive)
same,GI50,[16],28.2 µM (inactive)
same,GI50,[17],31.3 µM (inactive)
same,GI50,[18],> 100 µM (inactive)
same,GI50,[19],> 100 µM (inactive)
same,GI50,[20],0.186 µM (active)
same,GI50,[21],> 100 µM (inactive)
same,GI50,[22],> 100 µM (inactive)
same,GI50,[60],> 100 µM (inactive)
same,GI50,[61],71.4 µM (inactive)
same,GI50,[62],60.3 µM (inactive)
same,GI50,[23],> 75.7 µM (inactive)
same,GI50,[24],> 100 µM (inactive)
same,GI50,[25],0.656 µM (active)
same,GI50,[26],> 100 µM (inactive)
same,GI50,[27],1.91 µM (inactive)
same,GI50,[28],15 µM (inactive)
same,GI50,[63],61.5 µM (inactive)
same,GI50,[29],1.44 µM (inactive)
same,GI50,[30],2.79 µM (inactive)
same,GI50,[31],2.14 µM (inactive)
same,GI50,[32],> 100 µM (inactive)
same,GI50,[64],> 100 µM (inactive)
same,GI50,[33],> 100 µM (inactive)
same,GI50,[34],0.233 µM (active)
same,GI50,[35],0.541 µM (active)
same,GI50,[36],> 100 µM (inactive)
same,GI50,[37],> 77.3 µM (inactive)
same,GI50,[38],> 82.4 µM (inactive)
same,GI50,[39],98.4 µM (inactive)
same,GI50,[65],> 90.6 µM (inactive)
same,GI50,[40],> 87.7 µM (inactive)
same,GI50,[41],> 97.3 µM (inactive)
same,GI50,[42],97.9 µM (inactive)
same,GI50,[43],> 88.1 µM (inactive)
same,GI50,[44],29.7 µM (inactive)
same,GI50,[45],> 72.8 µM (inactive)
same,GI50,[46],> 40.8 µM (inactive)
same,GI50,[47],> 80.7 µM (inactive)
same,GI50,[48],1.46 µM (inactive)
same,GI50,[66],1.34 µM (inactive)
same,GI50,[49],2.61 µM (inactive)
same,GI50,[50],0.108 µM (active)
same,GI50,[51],68.5 µM (inactive)
